Molecular target: T1, MerTK (Homo sapiens, UniProt Q12866)
T1 construct: Seed HUVECs (10K cells/well) in EBM-2 complete media; host or cells: HUVEC (primary human umbilical vein endothelial cells)
T1 sequence (Q12866 21-999): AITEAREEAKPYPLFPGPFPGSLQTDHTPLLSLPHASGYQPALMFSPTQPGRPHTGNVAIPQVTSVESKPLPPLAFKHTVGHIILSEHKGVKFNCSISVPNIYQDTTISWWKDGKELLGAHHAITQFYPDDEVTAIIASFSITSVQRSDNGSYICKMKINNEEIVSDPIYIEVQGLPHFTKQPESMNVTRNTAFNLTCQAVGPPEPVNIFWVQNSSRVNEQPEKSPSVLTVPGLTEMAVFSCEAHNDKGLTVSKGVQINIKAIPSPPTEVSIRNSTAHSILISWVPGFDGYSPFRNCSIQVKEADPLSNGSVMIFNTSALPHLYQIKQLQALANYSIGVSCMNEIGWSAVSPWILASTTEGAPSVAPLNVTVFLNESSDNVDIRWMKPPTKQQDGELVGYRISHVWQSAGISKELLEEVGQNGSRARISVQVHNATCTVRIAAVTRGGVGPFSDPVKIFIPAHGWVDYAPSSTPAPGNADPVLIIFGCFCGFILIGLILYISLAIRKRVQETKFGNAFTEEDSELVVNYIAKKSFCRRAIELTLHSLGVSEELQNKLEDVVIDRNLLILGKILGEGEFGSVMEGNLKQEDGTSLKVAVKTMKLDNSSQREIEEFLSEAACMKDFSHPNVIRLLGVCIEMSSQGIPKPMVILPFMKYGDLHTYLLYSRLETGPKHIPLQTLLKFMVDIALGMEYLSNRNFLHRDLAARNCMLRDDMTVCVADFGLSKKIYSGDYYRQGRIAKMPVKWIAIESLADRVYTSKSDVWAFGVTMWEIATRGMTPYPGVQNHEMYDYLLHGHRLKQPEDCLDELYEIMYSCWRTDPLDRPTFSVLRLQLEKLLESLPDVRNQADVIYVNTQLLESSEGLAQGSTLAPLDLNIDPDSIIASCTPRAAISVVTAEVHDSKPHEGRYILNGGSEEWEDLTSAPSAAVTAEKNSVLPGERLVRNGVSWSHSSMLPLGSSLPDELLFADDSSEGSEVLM
Test: PAKT HTRF-HUVEC assay (pAkt Ser473 HTRF after anti-human MerTK-XL stimulation)
Assay type: cell-based
Details: HUVEC cells, 1 hour compound, stimulated with anti-human MerTK-XL 1 ug/mL for 10 minutes, read-out: inhibition of MerTK
Method in brief: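 HUVECs starved 3-4 h in basal medium, preincubated with compound 1 h at 37° C, then stimulated 10 min with cross-linked anti-human MerTK antibody (final 1 ug/mL). Lysates read for pAkt (Ser473) by HTRF; EC50 from curve fitting.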

SMILES | EC50
CCOC(=O)C1CCN(Cc2ccc3c(c2)c(=O)n([C@H]2CC[C@H](O)CC2)c2nc(NCC4CC4)ncc32)CC1 [Compound 50, trans-Ethyl 1-((3-((Cyclopropylmethyl)amino)-5-(4-hydroxycyclohexyl)-6-oxo-5,6-dihydropyrimido[4,5-c]isoquinolin-8-yl)methyl)piperidine-4-carboxylate] | 25.9 nM
CC(C)(C)N1CCN(Cc2ccc3c(c2)c(=O)n([C@H]2CC[C@H](O)CC2)c2nc(NCC4CC4)ncc32)CC1 [Compound 60, trans-8-((4-(tert-butyl)piperazin-1-yl)methyl)-3-((cyclopropylmethyl)amino)-5-(4-hydroxycyclohexyl)pyrimido [4,5-c]isoquinolin-6(5H)-one] | 4.2 nM
CC(C)N1CCN(Cc2ccc3c(c2)c(=O)n([C@H]2CC[C@](C)(O)CC2)c2nc(NCC4CC4)ncc32)CC1 [Compound 31, trans-3-((Cyclopropylmethyl)amino)-5-(4-hydroxy-4-methylcyclohexyl)-8-((4-isopropylpiperazin-1-yl)methyl)pyrimido[4,5-c]isoquinolin-6(5H)-one] | 12.5 nM
CCC1(CNc2ncc3c4ccc(CN5CCN(C)CC5)cc4c(=O)n([C@H]4CC[C@H](O)CC4)c3n2)CC1 [Compound 22, trans-3-(((1-Ethylcyclopropyl)methyl)amino)-5-(4-hydroxycyclohexyl)-8-((4-methylpiperazin-1-yl)methyl)pyrimido[4,5-c]isoquinolin-6(5H)-one] | 589 nM
CCCCNc1ncc2c3ccc(CN4CCN(C)CC4)cc3c(=O)n(CC3CCC(O)CC3)c2n1 (stereo not shown) [Compound 6, 3-(Butylamino)-5-((4-hydroxycyclohexyl)methyl)-8-((4-methylpiperazin-1-yl)methyl)pyrimido[4,5-c]isoquinolin-6(5H)-one] | 2040 nM
CCCCNc1ncc2c3ccc(N4CCC(N5CCCC5)CC4)cc3c(=O)n(C3CCC(=O)CC3)c2n1 [Compound 72, 3-(Butylamino)-5-(4-oxocyclohexyl)-8-(4-(pyrrolidin-1-yl)piperidin-1-yl)pyrimido[4,5-c]isoquinolin-6(5H)-one] | 220 nM
CCC1(CNc2ncc3c4ccc(CN5CCN(C)CC5)cc4c(=O)n([C@H]4CC[C@H](O)CC4)c3n2)CCC1 [Compound 18, trans-3-(((1-Ethylcyclobutyl)methyl)amino)-5-(4-hydroxycyclohexyl)-8-((4-methylpiperazin-1-yl)methyl)pyrimido[4,5-c]isoquinolin-6(5H)-one] | 277 nM

Other lines, results leading:

EC50 | SMILES
2.4 nM | O=c1c2cc(CN3CCC(c4ccncc4)CC3)ccc2c2cnc(NC3CCC3)nc2n1[C@H]1CC[C@H](O)CC1 [Compound 227, trans-3-(Cyclobutylamino)-5-(4-hydroxycyclohexyl)-8-((4-(pyridin-4-yl)piperidin-1-yl)methyl)pyrimido[4,5-c]isoquinolin-6(5H)-one]
1670 nM | CN1CCN(Cc2ccc3c(c2)c(=O)n(C2CCOCC2)c2nc(NCC4CC4)ncc32)CC1 [Compound 133]
126 nM | CCCCNc1ncc2c3ccc(CN4CCN(C)CC4)cc3c(=O)n([C@H]3CC[C@H](C#N)CC3)c2n1 [Compound 128]
167 nM | NC(=O)C1CCN(Cc2ccc3c(c2)c(=O)n([C@H]2CC[C@H](O)CC2)c2nc(NCC4CC4)ncc32)CC1 [Compound 203, trans-1-((3-((Cyclopropylmethyl)amino)-5-(4-hydroxycyclohexyl)-6-oxo-5,6-dihydropyrimido[4,5-c]isoquinolin-8-yl)methyl)piperidine-4-carboxamide]
35.7 nM | CN1CCN(c2ccc3c(c2)c(=O)n([C@H]2CC[C@](C)(O)CC2)c2nc(NCCC4CC4)ncc32)CC1 [Compound 98, trans-3-((2-Cyclopropylethyl)amino)-5-(4-hydroxy-4-methylcyclohexyl)-8-(4-methylpiperazin-1-yl)pyrimido[4,5-c]isoquinolin-6(5H)-one]
483 nM | O=c1c2cc(N3CCN(C4CC4)CC3)ccc2c2cnc(NCC3CC3)nc2n1[C@H]1CC[C@H](O)CC1 [Compound 177]
